Data on 16 molecules can be found in patent publication US20250215012A1, “IKZF2 DEGRADERS AND USES THEREOF” (REGENTS OF THE UNIVERSITY OF MICHIGAN, priority 2022, published 2025).

Read-outs that look alike come from different tables or passages of the source.

Experiment [1] concerns the target His tagged CRBN+DDB−DLS7+CXU4 (Homo sapiens (Human), UniProt Q96SW2). Put plainly: IC50 Measurements for Binding to CRBN/DDBI (HTRF). The following applies: Cy5-labeled Thalidomide probe, one hour incubation. (In general: Time-resolved FRET reads energy transfer from a long-lived donor to a nearby acceptor.)
Experiment [2] has as its target IKZF2 (Homo sapiens (Human), UniProt Q96SW2+Q9UKS7). In words: IKZF2 HiBit Assay (HEK293T Flp-in-HiBiT cells). Type of experiment: cell-based. The following applies: for DC50: read-out: IKZF2 HiBit degradation DC50; for Dmax: HEK-293T, read-out: IKZF2 HiBit degradation Dmax. In a few lines: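 HEK293T Flp-in cells carrying CRISPR-inserted N-terminal HiBiT tag at the endogenous IKZF2 locus were treated with an 11-point, 3-fold dilution from 1 mM (stock) for 6 hrs; final DMSO 0.1%. HiBiT luminescence was detected after lysis with LgBiT/substrate reagent. DMSO-normalized curves gave 50% degradation concentration and Dmax.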

Experiment [3] deals with IKZF1 (Homo sapiens (Human), UniProt Q13422+Q96SW2). In words: IKZF1 HiBit Assay (HEK293T Flp-in-HiBiT-IKZF1 stable cell line). As to conditions: for DC50: read-out: IKZF1 HiBit degradation DC50; for Dmax: HEK-293T, read-out: IKZF1 HiBit degradation Dmax. It is filed as cell-based. In a few lines: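 HEK293T Flp-in cells with CRISPR-inserted N-terminal HiBiT tag treated 6 h with 11-point threefold dilutions (0.1% DMSO). Nano-Glo HiBiT lytic luminescence normalised to DMSO gave the 50%-degradation concentration; Dmax taken as the luminescence range from highest to lowest concentration.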
Chain of IKZF1 (Q13422 whole entry): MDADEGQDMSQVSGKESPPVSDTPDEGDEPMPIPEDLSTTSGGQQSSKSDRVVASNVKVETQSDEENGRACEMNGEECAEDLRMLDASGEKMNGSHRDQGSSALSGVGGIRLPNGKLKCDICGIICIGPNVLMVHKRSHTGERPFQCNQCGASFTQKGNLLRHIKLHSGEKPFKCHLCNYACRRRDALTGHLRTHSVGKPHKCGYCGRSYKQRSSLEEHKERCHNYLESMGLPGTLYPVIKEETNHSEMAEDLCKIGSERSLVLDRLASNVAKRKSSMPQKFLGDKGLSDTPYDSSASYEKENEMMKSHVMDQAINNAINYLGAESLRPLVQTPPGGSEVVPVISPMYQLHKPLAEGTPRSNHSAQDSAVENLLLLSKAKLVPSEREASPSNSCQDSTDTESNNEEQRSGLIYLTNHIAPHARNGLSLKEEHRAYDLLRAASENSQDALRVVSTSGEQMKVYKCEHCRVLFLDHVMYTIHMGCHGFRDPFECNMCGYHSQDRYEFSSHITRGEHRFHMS
Chain of IKZF1 (Q96SW2 whole entry): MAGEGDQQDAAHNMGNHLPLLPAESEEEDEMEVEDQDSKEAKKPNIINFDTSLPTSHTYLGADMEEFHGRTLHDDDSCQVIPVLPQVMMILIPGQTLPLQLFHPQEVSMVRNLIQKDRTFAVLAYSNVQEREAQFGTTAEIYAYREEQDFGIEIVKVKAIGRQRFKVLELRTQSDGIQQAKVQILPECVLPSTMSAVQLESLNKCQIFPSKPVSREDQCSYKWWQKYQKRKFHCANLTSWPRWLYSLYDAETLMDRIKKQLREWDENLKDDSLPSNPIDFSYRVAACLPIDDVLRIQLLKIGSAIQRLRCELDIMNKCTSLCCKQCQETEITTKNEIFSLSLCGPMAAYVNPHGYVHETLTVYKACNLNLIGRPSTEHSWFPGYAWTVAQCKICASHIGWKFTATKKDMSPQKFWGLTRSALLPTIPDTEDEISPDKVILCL
Chain of IKZF1 (Q16531 whole entry partner): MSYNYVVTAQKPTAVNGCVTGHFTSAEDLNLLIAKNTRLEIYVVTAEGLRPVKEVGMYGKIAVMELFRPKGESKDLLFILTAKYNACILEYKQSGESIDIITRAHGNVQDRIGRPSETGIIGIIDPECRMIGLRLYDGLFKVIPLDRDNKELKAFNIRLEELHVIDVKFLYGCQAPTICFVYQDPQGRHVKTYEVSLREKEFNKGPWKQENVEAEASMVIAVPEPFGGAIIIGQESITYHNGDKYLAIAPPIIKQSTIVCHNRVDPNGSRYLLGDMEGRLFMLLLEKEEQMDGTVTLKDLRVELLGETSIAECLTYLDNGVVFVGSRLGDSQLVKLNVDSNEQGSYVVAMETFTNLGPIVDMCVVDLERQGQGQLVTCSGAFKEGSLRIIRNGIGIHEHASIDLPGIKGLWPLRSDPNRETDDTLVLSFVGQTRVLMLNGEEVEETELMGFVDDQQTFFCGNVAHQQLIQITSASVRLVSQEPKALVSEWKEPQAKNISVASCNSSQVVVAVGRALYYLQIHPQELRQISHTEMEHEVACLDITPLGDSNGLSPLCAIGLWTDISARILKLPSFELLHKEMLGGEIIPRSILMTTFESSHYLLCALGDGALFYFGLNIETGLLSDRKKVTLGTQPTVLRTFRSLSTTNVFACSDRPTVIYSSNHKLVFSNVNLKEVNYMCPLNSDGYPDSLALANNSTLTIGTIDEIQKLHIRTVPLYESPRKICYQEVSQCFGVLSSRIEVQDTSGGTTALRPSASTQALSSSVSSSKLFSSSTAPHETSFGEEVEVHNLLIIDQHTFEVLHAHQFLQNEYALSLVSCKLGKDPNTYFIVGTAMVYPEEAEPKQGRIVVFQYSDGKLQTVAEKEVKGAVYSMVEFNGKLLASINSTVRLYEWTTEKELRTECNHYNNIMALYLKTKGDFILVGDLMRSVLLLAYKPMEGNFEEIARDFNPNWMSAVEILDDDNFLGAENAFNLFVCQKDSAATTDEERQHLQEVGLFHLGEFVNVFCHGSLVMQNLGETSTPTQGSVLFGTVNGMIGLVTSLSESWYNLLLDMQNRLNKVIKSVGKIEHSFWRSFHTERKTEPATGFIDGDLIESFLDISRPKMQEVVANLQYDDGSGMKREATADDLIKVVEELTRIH

The mark [4] stands for this setting: HEK293T Flp-in-HiBiT cells, 6 hrs.
Where [5] appears, read: HEK293T Flp-in-HiBiT-IKZF1 cells, 6 hrs.

Chain of His tagged CRBN+DDB−DLS7+CXU4 (Q96SW2 whole entry): as the sequence (Q96SW2 whole entry) above
Chain of His tagged CRBN+DDB−DLS7+CXU4 (Q16531 whole entry partner): as the sequence (Q16531 whole entry partner) above
Chain of IKZF2 (Q9UKS7 whole entry): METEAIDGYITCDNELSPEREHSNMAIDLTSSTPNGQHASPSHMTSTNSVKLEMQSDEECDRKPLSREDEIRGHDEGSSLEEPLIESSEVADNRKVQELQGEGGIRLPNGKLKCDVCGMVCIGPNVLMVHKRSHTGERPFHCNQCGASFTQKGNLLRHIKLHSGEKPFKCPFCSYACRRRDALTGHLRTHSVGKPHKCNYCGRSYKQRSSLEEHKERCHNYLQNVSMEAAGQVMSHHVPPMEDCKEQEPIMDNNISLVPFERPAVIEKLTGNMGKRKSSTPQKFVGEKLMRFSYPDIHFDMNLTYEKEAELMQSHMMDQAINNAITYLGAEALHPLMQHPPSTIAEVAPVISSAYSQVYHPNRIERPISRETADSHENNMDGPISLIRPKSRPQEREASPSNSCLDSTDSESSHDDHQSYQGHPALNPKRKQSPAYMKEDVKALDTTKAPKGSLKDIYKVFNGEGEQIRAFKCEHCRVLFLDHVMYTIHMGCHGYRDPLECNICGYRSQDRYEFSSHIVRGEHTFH
Chain of IKZF2 (Q96SW2 whole entry): as the sequence (Q96SW2 whole entry) above
Chain of IKZF2 (Q16531 whole entry partner): as the sequence (Q16531 whole entry partner) above

Regarding `O=C1CC[C@H](N2Cc3c4c(cc(Cl)c3C2=O)C2(CCN(Cc3ccccc3)CC2)CO4)C(=O)N1` [Compound B17, (S)-3-(1′-benzyl-5-chloro-6-oxo-6,8-dihydro-2H,7H-spiro[furo[2,3-e]isoindole-3,4′-piperidin]-7-yl)piperidine-2,6-dione], the IC50 (usually the midpoint of a concentration-inhibition curve) in experiment [1] fell in the range of 500 to 1000 nM. Besides, the DC50 in experiment [2] (setting [4]) and in experiment [3] (setting [5]) was greater than 1000 nM in each case. For the same molecule, the Dmax in experiment [2] (setting [4]) and in experiment [3] (setting [5]) was less than 20% in each case.

Regarding `[2H]C([2H])(c1cccc(-c2cnn(C)c2)c1)N1CCC2(COc3c2ccc2c3CN([C@H]3CCC(=O)NC3=O)C2=O)C(F)(F)C1` (some centres unmarked) [Compound B50], the IC50 in experiment [1] is 100 to 500 nM. Moreover, in experiment [2] (setting [4]), the DC50 – broadly, the concentration at which degradation of the target reaches its halfway point – lay within 1 to 10 nM and the Dmax (as a rule, the greatest extent of degradation seen) lay in the range of 60 to 80%. Moreover, in experiment [3] (setting [5]), the DC50 is greater than 1000 nM and the Dmax is less than 20%.

In experiment [1], `Cn1ncc2c(CN3CCC4(COc5c4ccc4c5CN([C@H]5CCC(=O)NC5=O)C4=O)C(F)(F)C3)cccc21` (stereo partly drawn) [Compound B43, (3S)-3-(3′,3′-difluoro-1′-((1-methyl-1H-indazol-4-yl)methyl)-6-oxo-6,8-dihydro-2H,7H-spiro[furo[2,3-e]isoindole-3,4′-piperidin]-7-yl)piperidine-2,6-dione] came in with an IC50 of 1000 to 5000 nM. Moreover, in experiment [2] (setting [4]), the DC50 was 1 to 10 nM and the Dmax fell in the range of 60 to 80%. In experiment [3] (setting [5]), the DC50 was greater than 1000 nM and the Dmax is less than 20%.

For `O=C1CC[C@H](N2Cc3c(ccc4c3OCC43CCN(Cc4cccc5[nH]ncc45)CC3(F)F)C2=O)C(=O)N1` (stereo partly drawn) [Compound B41, (3S)-3-(1′-((1H-indazol-4-yl)methyl)-3′,3′-difluoro-6-oxo-6,8-dihydro-2H,7H-spiro[furo[2,3-e]isoindole-3,4′-piperidin]-7-yl)piperidine-2,6-dione], in experiment [1], the IC50 is 100 to 500 nM. In addition, in experiment [2] (setting [4]), the DC50 was 1 to 10 nM and the Dmax lay in the range of 60 to 80%. Further, in experiment [3] (setting [5]), the DC50 was 10 to 100 nM and the Dmax fell in the range of 20 to 40%.

Turning to `O=C1CC[C@H](N2Cc3c(ccc4c3OCC43CCN(Cc4cn(-c5ccc(Cl)cc5)nc4C(F)(F)F)CC3)C2=O)C(=O)N1` [Compound B5, (S)-3-(1′-((1-(4-chlorophenyl)-3-(trifluoromethyl)-1H-pyrazol-4-yl)methyl)-6-oxo-6,8-dihydro-2H,7H-spiro[furo[2,3-e]isoindole-3,4′-piperidin]-7-yl)piperidine-2,6-dione], the half-inhibitory concentration (IC50) in experiment [1] is 100 to 500 nM. Further, in experiment [2] (setting [4]), the DC50 was in the range of 1 to 10 nM and the Dmax fell in the range of 60 to 80%. Further, in experiment [3] (setting [5]), the DC50 was greater than 1000 nM and the Dmax is less than 20%.

`O=C1CCC(N2Cc3c(ccc4c3OCC43CCN(Cc4ccccc4)CC3F)C2=O)C(=O)N1` (centres unmarked) [Compound B23, 3-(1′-benzyl-3′-fluoro-6-oxo-6,8-dihydro-2H,7H-spiro[furo[2,3-e]isoindole-3,4′-piperidin]-7-yl)piperidine-2,6-dione] gave an IC50 in experiment [1] of 500 to 1000 nM. Further, in experiment [2] (setting [4]), the DC50 was greater than 1000 nM and the Dmax was less than 20%. Also, in experiment [3] (setting [5]), the DC50 was greater than 1000 nM and the Dmax is less than 20%.

In experiment [1], `Cn1ncc2cc(CN3CCC4(COc5c4ccc4c5CN([C@H]5CCC(=O)NC5=O)C4=O)C(F)(F)C3)ccc21` (stereo partly drawn) [Compound B38, (3S)-3-(3′,3′-difluoro-1′-((1-methyl-1H-indazol-5-yl)methyl)-6-oxo-6,8-dihydro-2H,7H-spiro[furo[2,3-e]isoindole-3,4′-piperidin]-7-yl) piperidine-2,6-dione] yielded an IC50 of 100 to 500 nM. The DC50 in experiment [2] (setting [4]) was 1 to 10 nM; in experiment [3] (setting [5]), greater than 1000 nM. Also, the results for the Dmax in experiment [2] (setting [4]) and in experiment [3] (setting [5]) were 60 to 80% and less than 20%, respectively.

Turning to `Cn1cc(-c2cccc(CN3CCC4(CC3)COc3c4cc(C#N)c4c3CN([C@H]3CCC(=O)NC3=O)C4=O)c2)cn1` [Compound B19, (S)-7-(2,6-dioxopiperidin-3-yl)-1′-(3-(1-methyl-1H-pyrazol-4-yl)benzyl)-6-oxo-7,8-dihydro-2H,6H-spiro[furo[2,3-e]isoindole-3,4′-piperidine]-5-carbonitrile], the IC50 in experiment [1] fell in the range of 1000 to 5000 nM. Besides, the DC50 in experiment [2] (setting [4]) is 100 to 1000 nM; in experiment [3] (setting [5]) it was greater than 1000 nM. The results for the Dmax in experiment [2] (setting [4]) and in experiment [3] (setting [5]) were 40 to 60% and less than 20%, respectively.

In turn, `Cn1cc2cccc(CN3CCC4(COc5c4ccc4c5CN([C@H]5CCC(=O)NC5=O)C4=O)C(F)(F)C3)c2n1` (stereo partly drawn) [Compound B36, (3S)-3-(3′,3′-difluoro-1′-((2-methyl-2H-indazol-7-yl)methyl)-6-oxo-6,8-dihydro-2H,7H-spiro[furo[2,3-e]isoindole-3,4′-piperidin]-7-yl)piperidine-2,6-dione] yielded an IC50 in experiment [1] of 100 to 500 nM. In addition, in experiment [2] (setting [4]), the DC50 was 1 to 10 nM and the Dmax was in the range of 60 to 80%. Further, in experiment [3] (setting [5]), the DC50 was less than 1 nM and the Dmax was in the range of 20 to 40%.

In turn, `O=C1CC[C@H](N2Cc3c(ccc4c3OCC43CCN(Cc4ccc5c(c4)CC(=O)N5)CC3(F)F)C2=O)C(=O)N1` (stereo partly drawn) [Compound B28, (3S)-3-(3′,3′-difluoro-6-oxo-1′-((2-oxoindolin-5-yl)methyl)-6,8-dihydro-2H,7H-spiro[furo[2,3-e]isoindole-3,4′-piperidin]-7-yl)piperidine-2,6-dione] gave an IC50 in experiment [1] of 100 to 500 nM. The figures for the DC50 in experiment [2] (setting [4]) and in experiment [3] (setting [5]) were 1 to 10 nM and greater than 1000 nM, respectively. Besides, the Dmax in experiment [2] (setting [4]) was 60 to 80%; in experiment [3] (setting [5]) it was less than 20%.

In turn, `O=C1CC[C@H](N2Cc3c(ccc4c3OCC43CCN(Cc4cnn(-c5ccc(Cl)cc5)c4)CC3(F)F)C2=O)C(=O)N1` (stereo partly drawn) [Compound B30, (3S)-3-(1′-((1-(4-chlorophenyl)-1H-pyrazol-4-yl)methyl)-3′,3′-difluoro-6-oxo-6,8-dihydro-2H,7H-spiro[furo[2,3-e]isoindole-3,4′-piperidin]-7-yl)piperidine-2,6-dione] had an IC50 in experiment [1] of 1000 to 5000 nM. The DC50 was 1 to 10 nM in experiment [2] (setting [4]) and greater than 1000 nM in experiment [3] (setting [5]). Further, the Dmax in experiment [2] (setting [4]) was 60 to 80%; in experiment [3] (setting [5]), less than 20%.

As to `O=C1CC[C@H](N2Cc3c(ccc4c3OCC43CCN(Cc4cnn(S(=O)(=O)c5ccccc5Cl)c4)CC3(F)F)C2=O)C(=O)N1` (stereo partly drawn) [Compound B29, (3S)-3-(1′-((1-((2-chlorophenyl)sulfonyl)-1H-pyrazol-4-yl)methyl)-3′,3′-difluoro-6-oxo-6,8-dihydro-2H,7H-spiro[furo[2,3-e]isoindole-3,4′-piperidin]-7-yl)piperidine-2,6-dione], the IC50 in experiment [1] is less than 100 nM. In addition, the DC50 was less than 1 nM in experiment [2] (setting [4]) and 1 to 10 nM in experiment [3] (setting [5]). For the same molecule, the Dmax was greater than 80% in experiment [2] (setting [4]) and greater than 40% in experiment [3] (setting [5]).

For `[2H]C([2H])(c1ccc2cnn(C)c2c1)N1CCC2(CC1)COc1c2ccc2c1CN([C@H]1CCC(=O)NC1=O)C2=O` [Compound B8, (S)-3-(1′-((1-methyl-1H-indazol-6-yl)methyl-d2)-6-oxo-6,8-dihydro-2H,7H-spiro[furo[2,3-e]isoindole-3,4′-piperidin]-7-yl)piperidine-2,6-dione], the half-maximal inhibitory concentration (IC50) in experiment [1] lay in the range of 100 to 500 nM. Further, the DC50 was 1 to 10 nM in experiment [2] (setting [4]) and greater than 1000 nM in experiment [3] (setting [5]). Besides, the Dmax is 60 to 80% in experiment [2] and less than 20% in experiment [3].

In turn, `Cn1ncc2cccc(CN3CCC4(COc5c4ccc4c5CN([C@H]5CCC(=O)NC5=O)C4=O)C(F)(F)C3)c21` (stereo partly drawn) [Compound B45, (3S)-3-(3′,3′-difluoro-1′-((1-methyl-1H-indazol-7-yl)methyl)-6-oxo-6,8-dihydro-2H,7H-spiro[furo[2,3-e]isoindole-3,4′-piperidin]-7-yl)piperidine-2,6-dione] yielded an IC50 in experiment [1] of 100 to 500 nM. Moreover, in experiment [2] (setting [4]), the half-maximal degradation concentration (DC50) fell in the range of 1 to 10 nM and the Dmax was greater than 80%. In addition, in experiment [3] (setting [5]), the DC50 fell in the range of 10 to 100 nM and the greatest degradation seen (Dmax) lay in the range of 20 to 40%.

`[2H]C([2H])(c1cccc(-c2cnn(C([2H])([2H])[2H])c2)c1)N1CCC2(COc3c2ccc2c3CN([C@H]3CCC(=O)NC3=O)C2=O)C(F)(F)C1` (stereo partly drawn) [Compound B48, (3S)-3-(3′,3′-difluoro-1′-((3-(1-(methyl-d3)-1H-pyrazol-4-yl)phenyl)methyl-d2)-6-oxo-6,8-dihydro-2H,7H-spiro[furo[2,3-e]isoindole-3,4′-piperidin]-7-yl)piperidine-2,6-dione] returned an IC50 in experiment [1] of 100 to 500 nM. For the same molecule, in experiment [2] (setting [4]), the DC50 was less than 1 nM and the Dmax lay within 60 to 80%. Moreover, in experiment [3] (setting [5]), the DC50 was greater than 1000 nM and the Dmax was less than 20%.

For `[2H]C([2H])([2H])n1cc(-c2cccc(CN3CCC4(COc5c4ccc4c5CN([C@H]5CCC(=O)NC5=O)C4=O)C(F)(F)C3)c2)cn1` (stereo partly drawn) [Compound B49, (3S)-3-(3′,3′-difluoro-1′-(3-(1-(methyl-d3)-1H-pyrazol-4-yl)benzyl)-6-oxo-6,8-dihydro-2H,7H-spiro[furo[2,3-e]isoindole-3,4′-piperidin]-7-yl) piperidine-2,6-dione], the half-maximal inhibitory concentration (IC50) in experiment [1] was in the range of 100 to 500 nM. Further, the DC50 in experiment [2] (setting [4]) was less than 1 nM; in experiment [3] (setting [5]), greater than 1000 nM. Besides, the Dmax in experiment [2] (setting [4]) was greater than 80%; in experiment [3] (setting [5]), less than 20%.
